{
  "source": "patent US20210161937A1",
  "about": "“ACTIVATION OF MITOCHONDRIAL UNCOUPLING AS A THERAPEUTIC INTERVENTION” (The Trustees of Columbia University in the City of New York, priority 2018, published 2021)",
  "key": {"[1]": {"tested_on": "Drosophila", "assay": "CO2 respiration assay after mitochondrial drug feeding", "assay_type": "in vivo", "settings": "24 hr feeding; 500 μM Oligomycin, 1 mM rotenone, 5 mM 2,4 DNP, 0.5% stearate", "protocol": "Measurement of CO2 production was performed similarly to Yatsenko et al. 2014. Briefly, 10 flies were placed in a sealed pipette tip-capillary respirometer (without anesthesia) containing a small amount of soda-lime. Respirometers were placed capillary side down in dH20 containing 0.1% blue food dye in a sealed TLC chamber placed in a 25° C. incubator. Empty sealed respirometers (containing no flies) were used to subtract blue dye background migration from experimental (fly-containing) samples. Flies were tested for 2 hr between at circadian timepoints, and CO2 production rate was indirectly determined by the amount of liquid movement up the capillary per hour after background subtraction. At least 6 groups of 10 flies were used per genotype for quantification for each condition. For mitochondrial drug feeding experiments, flies were placed on food containing the following compounds for 24 hr: 500 μM Oligomycin, 1 mM rotenone, 5 mM 2,4 DNP, 0.5% stearate, or ethanol vehicle controls."}, "[2]": {"tested_on": "Drosophila", "assay": "Lifespan analysis of flies fed drug-supplemented adult medium", "assay_type": "in vivo", "settings": "for median lifespan of control flies versus dose / median lifespan of per^01 null mutants versus dose: varying concentrations fed during adulthood; for lifespan of per^01 mutants / median lifespan of per^01 null mutants versus dose: per^01 null mutants; for lifespan of per^01 mutants: dietary DNP or BHT; for lifespan: wild-type (control) male flies, dietary 2,4 DNP 0.01-0.1 mM or BHT 0.1-1 mM vs ethanol vehicle", "protocol": "Drosophila were reared from embryos in low-density bottles with standard medium containing 3.8% glucose, 1.9% sucrose, 3% yeast nutritional flake (Lab Scientific), 6.5% cornmeal, 0.8% agar, supplemented with 1.5% methylparaben mix (10% methylparaben in ethanol) and 1% propionic acid. Adult flies that eclosed within a 24 hour period were collected and transferred to “adult medium” containing 3.8% glucose, 1.9% sucrose, 8% cornmeal, 1% agar, and either 0.01%, 0.5%, 3%, 5%, or 10% yeast extract (Difco) supplemented with 1.5% methylparaben mix and 1% propionic acid for lifespan and biochemical analysis. All percentages given in wt/v except methylparaben mix, propionic acid given in v/v.\nAll drugs were supplemented into cooled (65° C.) liquid adult medium (containing 3% yeast extract) following preparation to the following final concentration(s): RU486 100μg/mL. RU486 (Cayman Chemical) dissolved in ethanol was supplemented into medium after eclosion at a final concentration of 100 μg/mL (with the exception of DaGS>UAS-Ucp4c and controls, 5 μg/mL) vehicle controls were supplemented with same volume of ethanol alone. Developmental induction was achieved by adding RU486 at concentration of 5 μg/mL, or ethanol vehicle, followed by adults being aged on standard food containing no RU486. For uncoupler feeding 2,4 DNP or BHT purchased from Sigma was dissolved in ethanol fresh at the time of making food and added in to the media, at the indicated concentrations. 2,4 DNP (0.01-0.1 mM) and BHT (0.1-1 mM).\n(§1) Newly eclosed flies (˜24 hr) were collected and allowed to mate for 48 hr. Female and male flies were separated and maintained at a density of 30-35 flies per vial in a humidified, temperature-controlled (25° C.) incubator with a 12-hour light-dark cycle. For starvation analysis, flies were aged for 7 days in vials containing indicated diets and then transferred to 1% agar in a humidified, temperature-controlled incubator with 12-hour light-dark cycle at 25° C. Death was scored every 1-2 days, with live flies transferred to fresh vials every 2-3 days. Statistical significance was determined by log-rank analysis."}, "[3]": {"tested_on": "ISC tumors", "assay": "Notch-RNAi induced ISC tumor formation (Esg^ts>UAS-Notch-RNAi flies)", "assay_type": "in vivo, Drosophila", "protocol": "as §1\nEse^ts>UAS-Notch-RNAi flies were reared at 18° C. Upon eclosion flies were collected, sexed and placed on media containing 0.05 mM 2,4 DNP, or ethanol vehicle food at 30° C. Time-points of day 0, 8, and 16 days were taken. Intestines were dissected, fixed, and stained as above pHH3 protocol, with anti-GFP (cell signaling) and 1.5 μg/mL Hoechst stain. Quantification of GFP area was performed by using the ImageJ count particle tool in the GFP channel normalized to total area of the posterior midgut that was imaged. 7-13 guts were used for each condition and timepoint."}, "[4]": {"tested_on": "posterior midgut, ISCs/EBs", "assay": "MitoSOX intestinal staining and esg+ cell quantification in posterior midguts of Esg-GAL4>GFP flies", "assay_type": "in vivo, Drosophila", "settings": "Esg-GAL4>GFP flies fed DNP vs vehicle", "protocol": "Flies were anesthetized on ice and intestines were dissected in cold Schneider's Medium (Thermo Fisher Scientific). Intestines were then incubated in 75 nM of TMRE (Thermo Fisher Scientific) in Schneider's Medium, for 10 min at room temperature. Samples were rinsed three times for 30 sec with a solution consisting of 20 nM of TMRE Schneider's Medium. For MitoSOX staining dissected intestines were immersed in 50 μM MitoSOX Red (Invitrogen) in Schneider's Medium for 5 min at room temp, then washed three times for 30 sec in Schneider's Medium. MitoSOX or TMRE samples were quickly mounted in Schneider's Medium containing 1.5 μg/mL Hoechst stain. Intestines were imaged within 20 min on a Ziess LSM800 confocal microscope. Z-stacks spanning the entire posterior midgut were taken. Quantification of TMRE or MitoSOX was performed using ImageJ in which mean fluorescent intensity values were quantified. TMRE foci were quantified using the ImageJ (Schneider et al. 2012) local maxima tool, using identical thresholding for all images. Foci number were normalized to the number of nuclei in the measured field of view. Quantification of MitoSOX output of ISCs/EBs was determined by mean intensity from individual Z-planes with regions of interest defined by esgGFP expression, cell size, and basal location within the intestinal epithelium. Mean intensity of MitoSOX fluorescence levels in all ISCs/EBs were averaged for each individual intestine. A minimum of 9 midguts were used for each genotype or drug treatment."}},
  "note": "“Also recorded” adds a separate entry of the source.",
  "data": [
    {"compound": "C=C(C)[C@H]1Cc2c(ccc3c2O[C@@H]2COc4cc(OC)c(OC)cc4[C@@H]2C3=O)O1", "note": "[rotenone]", "values": [
      {"measurement": "respiration (relative CO2 production) of control flies", "setting": "[1]", "result": "inhibited the CO2 output of both control and per^01 animals to a similar degree"},
      {"measurement": "respiration (relative CO2 production) of per^01 mutants", "setting": "[1]", "result": "inhibited the CO2 output of both control and per^01 animals to a similar degree"}
    ]},
    {"compound": "Cc1cc(C(C)(C)C)c(O)c(C(C)(C)C)c1", "note": "[BHT, butylated hydroxytoluene]", "values": [
      {"measurement": "median lifespan of control flies versus dose", "setting": "[2]", "result": "increased their median lifespan in a dose-dependent manner"},
      {"measurement": "lifespan of per^01 mutants", "setting": "[2]", "result": "did not extend the lifespan of per^01 mutants"},
      {"measurement": "median lifespan of per^01 null mutants versus dose", "setting": "[2]", "result": "no median lifespan increase was observed"},
      {"measurement": "lifespan", "setting": "[2]", "result": "extended the lifespan of wild-type male flies in a dose-dependent manner; also recorded: increased lifespan compared to vehicle-fed controls"}
    ]},
    {"compound": "CC#C[C@]1(O)CC[C@H]2[C@@H]3CCC4=CC(=O)CCC4=C3[C@@H](c3ccc(N(C)C)cc3)C[C@@]21C", "note": "[RU486, mifepristone]", "values": [
      {"measurement": "lifespan on RU486 administration (induces constitutive overexpression of UCPs)", "setting": "[2]; RU486-inducible UCP overexpression (DaGS>UAS-Ucp4C flies)", "result": "increased lifespan"}
    ]},
    {"compound": "O=[N+]([O-])c1ccc(O)c([N+](=O)[O-])c1", "note": "[DNP, 2,4-dinitrophenol]", "values": [
      {"measurement": "progression of ISC tumors (GFP+ area in the midgut)", "setting": "[3]; 0.05 mM 2,4 DNP in media vs ethanol vehicle, 30° C., day 0, 8, 16", "result": "slowed the progression of ISC tumors; also recorded: delayed tumor formation"},
      {"measurement": "lifespan of flies with Notch-induced tumor formation", "setting": "[3]; dietary 2,4 DNP vs vehicle", "result": "extended the shortened lifespan of these animals; also recorded: extended lifespans"},
      {"measurement": "median lifespan of control flies versus dose", "setting": "[2]; listed as 2,4 DNP", "result": "increased their median lifespan in a dose-dependent manner"},
      {"measurement": "lifespan of per^01 mutants", "setting": "[2]", "result": "did not extend the lifespan of per^01 mutants"},
      {"measurement": "median lifespan of per^01 null mutants versus dose", "setting": "[2]", "result": "no median lifespan increase was observed"},
      {"measurement": "lifespan", "setting": "[2]", "result": "extended the lifespan of wild-type male flies in a dose-dependent manner"},
      {"measurement": "respiration (relative CO2 production) of control flies", "setting": "[1]", "result": "increased the respiration of control flies to levels similar to those of per^01 mutants"},
      {"measurement": "respiration (relative CO2 production) of per^01 mutants", "setting": "[1]", "result": "did not increase the respiration of per^01 mutants"},
      {"measurement": "age-related esg+ cell overproliferation (esg+ cell count)", "setting": "[4]", "result": "reduced"},
      {"measurement": "mitochondrial ROS output of ISC/EB populations (MitoSOX staining in GFP-marked ISCs/EBs)", "setting": "[4]", "result": "reduced"},
      {"measurement": "mitochondrial ROS output of the entire posterior midgut (MitoSOX staining)", "setting": "[4]", "result": "reduced"},
      {"measurement": "age-related esg+ cell overproliferation (esg+ cell count)", "setting": "[4]; listed as 2,4 DNP", "result": "fewer esg+cells"},
      {"measurement": "mitochondrial ROS output of ISC/EB populations (MitoSOX staining in GFP-marked ISCs/EBs)", "setting": "[4]; listed as 2,4 DNP", "result": "decreased MitoSOX staining specifically in ISCs/EBs"},
      {"measurement": "mitochondrial ROS output of the entire posterior midgut (MitoSOX staining)", "setting": "[4]; listed as 2,4 DNP", "result": "decreased Mitosox staining of the entire posterior midgut"}
    ]},
    {"compound": "CCCCCCCCCCCCCCCCCC(=O)O", "note": "[stearic acid]", "values": [
      {"measurement": "respiration (relative CO2 production) of control flies", "setting": "[1]", "result": "increased the respiration of control flies to levels similar to those of per^01 mutants"},
      {"measurement": "respiration (relative CO2 production) of per^01 mutants", "setting": "[1]", "result": "did not increase the respiration of per^01 mutants"}
    ]},
    {"compound": "CC[C@H]1/C=C/C=C/C[C@@H](C)[C@H](O)[C@@](C)(O)C(=O)[C@@H](C)[C@H](O)[C@@H](C)C(=O)[C@@H](C)[C@H](O)[C@@H](C)/C=C/C(=O)O[C@@H]2[C@H](C)[C@H](CC1)O[C@]1(CC[C@H](C)[C@H](C[C@@H](C)O)O1)[C@H]2C", "note": "[oligomycin]", "values": [
      {"measurement": "respiration (relative CO2 production) of control flies", "setting": "[1]", "result": "inhibited the CO2 output of both control and per^01 animals to a similar degree"},
      {"measurement": "respiration (relative CO2 production) of per^01 mutants", "setting": "[1]", "result": "inhibited the CO2 output of both control and per^01 animals to a similar degree"}
    ]}
  ]
}
